Molecules are shown by their SMILES. Where two headings read alike, the source gives them in different places. Marks after values point to notes of the source that are not given here. Numbered stars: 1 amine (or outer) side, 2 acyl side, 3 side chain; on linkers, the order of the positions; unused ones are H or OH. Bridge positions count the residues as written; N and C are the ends. Square brackets hold non-standard residues; d marks the D form. Peptide text beside a SMILES is read from it. * marks the point of attachment. X2 = COc1cc2cc(c1Cl)N(C)C(=O)C[C@H](OC(=O)[C@H](C)N(C)C(=O)CCC(C)SSC(C)CCC(=O)*)[C@]1(C)O[C@H]1[C@H](C)[C@@H]1C[C@@](O)(NC(=O)O1)[C@H](OC)/C=C/C=C(\C)C2; X3 = COc1cc2cc(c1Cl)N(C)C(=O)C[C@H](OC(=O)[C@H](C)N(C)C(=O)CCSSCCCC(=O)*)[C@]1(C)O[C@H]1[C@H](C)[C@@H]1C[C@@](O)(NC(=O)O1)[C@H](OC)/C=C/C=C(\C)C2; 1Nal = N[C@@H](Cc1cccc2ccccc12)C(=O)O; TBMB = c1c(C[*:1])cc(C[*:3])cc1C[*:2]; Tle = CC(C)(C)[C@H](N)C(=O)O; βAla = NCCC(=O)O; Sar = CNCC(=O)O

Results on 4 compounds are retold here after patent publication US11672868B2, “Bicyclic peptide ligands specific for MT1-MMP” (priority 2014, dated 2023).

A short description of series [1]: Mouse pharmacokinetics, single intravenous dose. It is filed as in vivo. Particulars: male CD1 mice, single intravenous 5.925 mg/kg, mean. As to the method:
Mouse pharmacokinetics were acquired using bicyclic peptide 17-69-04-N004, which was dosed to one group of 12 male CD1 mice as a single intravenous, 5.925 mg/kg doses as a 5 mL/kg bolus of a 1.19 mg/mL solution. […] Blood samples were taken from two animals per time-point, via cardiac puncture under terminal anaesthesia, at 0.08, 0.5, 1, 2 and 4 hours post-dose, and transferred to EDTA tubes for plasma generation. Plasma samples were immediately frozen at −20 C. For analysis, samples were thawed rapidly and 50 μL aliquots were treated with 3 volumes of extraction solvent (2:9:9 mixture of 10 mM ammonium bicarbonate, pH 8, acetonitrile and methanol, containing an analytical internal standard). Precipitated proteins were removed by centrifugation and the supernatant was analysed by LC-MS/MS. Quantification of the samples was by reference to a calibration line prepared in control mouse plasma. Pharmacokinetic parameters were determined by non-compartmental analysis using the software package PK Solutions 2.0 from Summit Research Services.
Cmax: Maximum measured concentration;
Tmax: Time at which maximum concentration was measured;
AUC 0-t: Area under the plasma drug concentration/time curve from 0 minutes to last quantifiable data point; and
AUC 0-∞: Area under the plasma drug concentration/time curve from 0 minutes extrapolated beyond the final data point based on the terminal half-life.

Series [2] is described as follows: Plasma stability, quantitative LC-MS (Method #2). It is filed as in vitro ADME, human. The conditions noted are these: human, human plasma. Here is the method: […] […] Prior to LC-MS analysis, samples were defrosted, and mixed with 3 volumes (here, 120 μL) of 1:1 acetonitrile/MeOH water. The milky suspensions were centrifuged for 30 min at 13000 rpm, and peptide-containing supernatants were quantitated for doubly/triply charged species and MS/MS fragments thereof using a Waters Xevo TQ-D instrument, while using a plasma extracted standard curve of the same peptides as a reference. The half-life of degradation in plasma was used to assess the comparative stability of the molecules.

For series [3], the target named is MT1-MMP hemopexin domain. Nature of the series: FP competition, species cross-reactivity (dog). It is filed as binding. Particulars: Table 13. The text has this:
(§1) Here, a pre-formed complex of PEX with the fluorescent PEX-binding tracer is titrated with free, non-fluoresceinated bicyclic peptide. Since all 17-69-based peptides are expected to bind at the same site, the titrant will displace the fluorescent tracer from PEX. Dissociation of the complex can be measured quantitatively, and the Kd of the competitor (titrant) to the target protein determined. The advantage of the competition method is that the affinities of non-fluoresceinated bicyclic peptides can be determined accurately and rapidly.
(§2) Subsequently, the non-fluorescent competitor bicyclic peptide (usually just the bicycle core sequence) is titrated, such that it displaces the fluorescent tracer from the target protein. The displacement of the tracer is measured and associated with a drop in fluorescence polarisation. The drop in fluorescence polarisation is proportional to the fraction of target protein bound with the non-fluorescent titrant, and thus is a measure of the affinity of titrant to target protein.
The raw data is fit to the analytical solution of the cubic equation that describes the equilibria between fluorescent tracer, titrant, and binding protein. The fit requires the value of the affinity of fluorescent tracer to the target protein, which can be determined separately by direct binding FP experiments (see previous section). […]

Series [4] is described as follows: Plasma stability, quantitative LC-MS (Method #2). It is filed as in vitro ADME, mouse. Particulars: for half-life at 4 μM: mouse, quantitative LC-MS, incubation up to 24 hrs, 4 μM BDC, read-out: t1/2 (hrs) (mouse plasma) (converted). Here is the method: To obtain plasma stability of bicyclic peptides quantitatively, peptide stock solutions (200 μM in DMSO) were mixed with plasma (human or mouse), such that final concentrations were 10 μM. 40 μL samples were taken periodically up to 8 hrs and frozen at −80° C. Prior to LC-MS analysis, samples were defrosted, and mixed with 3 volumes (here, 120 μL) of 1:1 acetonitrile/MeOH water. The milky suspensions were centrifuged for 30 min at 13000 rpm, and peptide-containing supernatants were quantitated for doubly/triply charged species and MS/MS fragments thereof using a Waters Xevo TQ-D instrument, while using a plasma extracted standard curve of the same peptides as a reference. The half-life of degradation in plasma was used to assess the comparative stability of the molecules.

The target of series [5] is T1, MT1-MMP hemopexin domain (PEX) (Homo sapiens, UniProt P50281).
T1 construct: residues Cys319-Gly511 from the human gene; His6 (N); made in house; host or cells: HEK293 (transient, pEXPR-IBA42 vector)
As to the kind of experiment: Competition assay using fluorescence polarisation. It is filed as binding.
Description: as §1, §2
The raw data is fit to the analytical solution of the cubic equation that describes the equilibria between fluorescent tracer, titrant, and binding protein. The fit requires the value of the affinity of fluorescent tracer to the target protein, which can be determined separately by direct binding FP experiments (see previous section).

Series [6] is described as follows: Plasma stability, quantitative LC-MS. It is filed as in vitro ADME. Particulars: rat, incubation up to 24 hrs, 4 μM BDC, read-out: t1/2 (hrs) (rat plasma) (converted). Here is the method: (§3) The four BDCs were assessed for several in vitro parameters such as retention of potency to the human MT1-MMP hemopexin domain, stability in ex vivo mouse, rat and human plasma, and stability to reducing agents such as dithiothreitol.

The subject of series [7] is HT-1080 xenograft tumours. Nature of the series: Efficacy in HT-1080 xenograft mice. It is filed as in vivo, mouse. The conditions noted are these: HT1080 xenograft. Here is the method:
Balb/c nude mice bearing subcutaneous HT-1080 xenograft tumours were treated with BDCs or vehicle (PBS). BDCs were dosed 3 times weekly for 2 weeks, dosing initiated when tumours measured approx. 150-200 mm^3. Mice were monitored, and measurements of tumour volume and body weight recorded 3 times a week.

For series [8], the system named is human lung squamous cell carcinoma line EBC-1. As to the kind of experiment: Efficacy in EBC-1 xenograft mice. Particulars: for ED50, effective dose to achieve 50% tumour AUC reduction: mouse bearing EBC-1 tumours, ± 95% confidence limit. It is filed as in vivo, mouse. Here is the method: In vivo efficacy of BT17BDC-17, BT17BDC-18, BT17BDC-19 and BT17BDC-20 All BDCs containing the stabilised bicycle core sequence were tested for their efficacies in in vivo mouse xenograft models, using the human lung squamous cell carcinoma line EBC-1.
The area under the curve (AUC) of tumour volume over time and BDC was taken and plotted against the corresponding dose group (FIG. 13).

For series [9] the following is noted: Kellogg et al (2011), cited from earlier work.
A short description of series [10]: Stability to reducing agent dithiothreitol (DTT). It is filed as physicochemical. Particulars: Bicycle Drug Conjugates, quantitative LC-MS. Here is the method: as §3

As for `CC[C@H](C)[C@@H]1NC(=O)[C@H](CC(=O)O)NC(=O)[C@H](Cc2ccc(O)cc2)NC(=O)[C@H](Cc2ccccc2)NC(=O)[C@H](CC(=O)O)NC(=O)[C@H](CCC(=O)O)NC(=O)[C@@H]2CSCc3cc(cc(c3)CSC[C@H](NC(C)=O)C(=O)N[C@@H](Cc3ccc(O)cc3)C(=O)N[C@@H](CC(N)=O)C(=O)N[C@@H](CCC(=O)O)C(=O)N[C@@H](Cc3ccccc3)C(=O)NCC(=O)N2)CSC[C@@H](C(N)=O)NC1=O` [17-69-07-N004, Ac-(17-69-07) (wildtype)], in [1], the “Clearance based on AUC 0-∞” value was found to be 20.7 mL/min/kg and the “Volume of Distribution based on AUC 0-∞” value was 0.4 L/kg.
With `CC[C@H](C)[C@@H]1NC(=O)[C@H](CC(=O)O)NC(=O)[C@H](Cc2ccc(O)cc2)NC(=O)[C@H](Cc2ccccc2)NC(=O)[C@H](CC(=O)O)NC(=O)[C@H](CCC(=O)O)NC(=O)[C@@H]2CSCc3cc(cc(c3)CSC[C@H](NC(=O)[C@H](C)NC(=O)CN(C)C(=O)CN(C)C(=O)CN(C)C(=O)CN(C)C(=O)CN(C)C(=O)CN(C)C(=O)CN(C)C(=O)CN(C)C(=O)CN(C)C(=O)CN(C)C(=O)CN)C(=O)N[C@@H](Cc3ccc(O)cc3)C(=O)N[C@@H](CC(N)=O)C(=O)N[C@@H](CCC(=O)O)C(=O)N[C@@H](Cc3ccccc3)C(=O)NCC(=O)N2)CSC[C@@H](C(N)=O)NC1=O` [17-69-07-N219, G-Sar10-A-(17-69-07)] (H-G[Sar][Sar][Sar][Sar][Sar][Sar][Sar][Sar][Sar][Sar]ACYNEFGCEDFYDIC-NH2; linker 13-19-26 via TBMB; C-terminus assumed), the half-life at 10 μM in series [2] (37° C., sentence prints mouse plasma, read-out: half-life of the peptide in plasma (FIG. 3B, human plasma stability) (converted)) is 6 h; in series [4] (ex vivo mouse plasma at 37° C., Method #2 (FIG. 1, FIG. 3A), read-out: half-life of the peptide in mouse plasma (converted)) it was 6 h. Further, the half-life at 4 μM is 30.3 ± 4.7 h in [2] (quantitative LC-MS, incubation up to 24 hrs, 4 μM BDC, read-out: t1/2 (hrs) (human plasma) (converted)); 3.9 ± 0.3 h in [4] (mouse plasma); 3.7 h in series [6] (rat plasma (ex vivo)). Further, the Kd stood at 0.9 nM in [3]; 0.82 ± 0.09 nM in [5] (Table 12, molecules selected for plasma stability assessment, read-out: Kd); 0.82 nM in series [5] (Table 13, Human/cyno MT1-MMP hemopexin domain, FP competition, read-out: Human/cyno (Kd)); 0.82 ± 0.09 nM in series [5] (Table 16, FP competition, footnote e: 17-69-07-N004 as tracer, read-out: Kd (nM) (Hemopexin domain)); 0.82 nM in series [5] (read-out: Kd, affinity to PEX / MT1-MMP).
`CC[C@H](C)[C@@H]1NC(=O)[C@H](CC(=O)O)NC(=O)[C@H](Cc2ccc(O)cc2)NC(=O)[C@H](Cc2ccccc2)NC(=O)[C@H](CC(=O)O)NC(=O)[C@H](CCC(=O)O)NC(=O)[C@@H]2CSCc3cc(cc(c3)CSC[C@H](NC(=O)[C@H](C)NC(=O)CN(C)C(=O)CN(C)C(=O)CN(C)C(=O)CN(C)C(=O)CN(C)C(=O)CN(C)C(=O)CN(C)C(=O)CN(C)C(=O)CN(C)C(=O)CN(C)C(=O)CNC(=O)CCCSSCCC(=O)N(C)[C@@H](C)C(=O)O[C@H]3CC(=O)N(C)c4cc(cc(OC)c4Cl)C/C(C)=C/C=C/[C@@H](OC)[C@@]4(O)C[C@H](OC(=O)N4)[C@@H](C)[C@@H]4O[C@@]34C)C(=O)N[C@@H](Cc3ccc(O)cc3)C(=O)N[C@@H](CC(N)=O)C(=O)N[C@@H](CCC(=O)O)C(=O)N[C@@H](Cc3ccccc3)C(=O)NCC(=O)N2)CSC[C@@H](C(N)=O)NC1=O` [BT17BDC-9] (X3-G[Sar][Sar][Sar][Sar][Sar][Sar][Sar][Sar][Sar][Sar]ACYNEFGCEDFYDIC-NH2; linker 13-19-26 via TBMB): in series [7], the “weight of the animals during treatment” value is on record as “largely stable”. In addition, the “reduction in tumour volume compared to vehicle control” value in [7] (after 9 days post injection) is listed as “significant reduction in tumour volume”. Also, the “ED50, effective dose to achieve 50% tumour AUC reduction” value in [8] was 2.1 ± 1.1^b mg/kg.
Take `COc1cc2cc(c1Cl)N(C)C(=O)C[C@H](OC(=O)[C@H](C)N(C)C(=O)CCC(C)SSC(C)CCC(=O)NCCC(=O)N(C)CC(=O)N(C)CC(=O)N(C)CC(=O)N(C)CC(=O)N(C)CC(=O)N(C)CC(=O)N(C)CC(=O)N(C)CC(=O)N(C)CC(=O)N(C)CC(=O)N[C@@H](C)C(=O)N[C@H]1CSCc3cc4cc(c3)CSC[C@H](NC(=O)[C@@H](C)NC(=O)[C@H](Cc3cccc5ccccc35)NC(=O)[C@H](CCC(=O)O)NC(=O)[C@H](CC(N)=O)NC(=O)[C@@H](C)NC1=O)C(=O)N[C@@H](CCC(=O)O)C(=O)N[C@@H](CC(=O)O)C(=O)N[C@@H](Cc1ccccc1)C(=O)N[C@@H](Cc1ccc(O)cc1)C(=O)N[C@@H](CC(=O)O)C(=O)N[C@@H](C(C)(C)C)C(=O)N[C@H](C(N)=O)CSC4)[C@]1(C)O[C@H]1[C@H](C)[C@@H]1C[C@@](O)(NC(=O)O1)[C@H](OC)/C=C/C=C(\C)C2` (some centres unmarked) [BT17BDC-20] ({X2-βAla}-[Sar][Sar][Sar][Sar][Sar][Sar][Sar][Sar][Sar][Sar]AC[dA]NE[1Nal][dA]CEDFYD[Tle]C-NH2; linker 12-18-25 via TBMB): the half-life at 4 μM in series [4] (plasma) was over 36 h. Besides, the “fold reduction in sensitivity to a reducing agent such as dithiothreitol” value in [9] (in the antibody drug conjugate context, compared to the non-hindered disulphide) is recorded as 170 fold. For the same compound, the “Relative Stability to DTT (ADC)” value in series [9] (values relate to antibody drug conjugates containing the same disulphide linker) was 170. Also, the “Relative Stability to DTT (BDC)” value in [10] is 93. Also, the half-life at 4 μM in series [6] (plasma) was 34 ± 4 h. Moreover, in series [8] (EBC-1 xenograft), the “efficacy in EBC-1 xenograft” value is “not efficacious” and the “tolerability / body weight” value is reported as “tolerated based on constant weight”. The “ED50, effective dose to achieve 50% tumour AUC reduction” value in [8] is given as 22 ± 13^b mg/kg.
